Read-outs that look alike come from different tables or passages of the source.
Tests used:
δ-opioid receptor = δ-opioid receptor (Rattus norvegicus, UniProt P33533); assay: Rat brain δ-opioid receptor binding assay ([3H]DPDPE)
μ-opioid receptor = μ-opioid receptor (Rattus norvegicus, UniProt P33535); assay: Rat brain μ-opioid receptor binding assay ([3H]DAMGO)
[1] = rat forebrain preparation, [3H]DPDPE, 25° C., read-out: δ-Opioid Receptor Binding (Ki nM)
[2] = rat forebrain preparation, [3H]DAMGO, 25° C., read-out: μ-Opioid Receptor Binding (Ki nM)

μ-opioid receptor, sequence (P33535 whole entry): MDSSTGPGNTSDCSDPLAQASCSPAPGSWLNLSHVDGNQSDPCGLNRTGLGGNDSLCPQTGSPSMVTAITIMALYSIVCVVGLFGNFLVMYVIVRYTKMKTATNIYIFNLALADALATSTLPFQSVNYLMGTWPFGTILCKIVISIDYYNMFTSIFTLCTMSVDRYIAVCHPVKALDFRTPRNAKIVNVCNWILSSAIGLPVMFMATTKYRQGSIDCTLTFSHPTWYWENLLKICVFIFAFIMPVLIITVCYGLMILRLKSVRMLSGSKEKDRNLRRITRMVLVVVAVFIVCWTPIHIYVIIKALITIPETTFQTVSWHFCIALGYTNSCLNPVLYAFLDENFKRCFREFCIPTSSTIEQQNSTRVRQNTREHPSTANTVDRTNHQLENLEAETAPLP
δ-opioid receptor, sequence (P33533 whole entry): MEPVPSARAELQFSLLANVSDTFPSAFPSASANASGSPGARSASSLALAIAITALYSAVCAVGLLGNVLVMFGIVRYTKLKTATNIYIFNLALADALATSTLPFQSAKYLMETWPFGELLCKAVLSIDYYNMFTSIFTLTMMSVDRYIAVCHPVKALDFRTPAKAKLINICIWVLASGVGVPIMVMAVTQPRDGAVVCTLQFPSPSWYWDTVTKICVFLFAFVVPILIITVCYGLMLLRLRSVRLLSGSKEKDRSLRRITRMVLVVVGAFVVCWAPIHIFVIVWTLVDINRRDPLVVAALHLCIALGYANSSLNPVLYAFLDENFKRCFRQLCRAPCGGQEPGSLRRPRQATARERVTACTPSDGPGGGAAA

3-[(phenylimino)[4-(2-propenyl)-1-piperazinyl]methyl]-benzoic acid methyl ester [Compound 55]
Ki (δ-opioid receptor; [1]): 1170 nM
Ki (μ-opioid receptor; [2]): > 10000 nM

4-[(4-ethenyl-1-piperazinyl)(phenylimino)methyl]-benzoic acid methyl ester [Compound 36]
Ki (δ-opioid receptor; [1]): 954 nM
Ki (μ-opioid receptor; [2]): > 10000 nM

4-[[(2-chlorophenyl)imino](4-propyl-1-piperazinyl)methyl]-N,N-diethyl-benzamide [Compound 18]
Ki (δ-opioid receptor; [1]): 157 nM
Ki (μ-opioid receptor; [2]): > 10000 nM

C=CCN1CCN(C(=Nc2ccccc2)c2ccc(C(=O)N(CC)CC)cc2)CC1 [Compound 15, N,N-diethyl-4-[(phenylimino)[4-(2-propenyl)-1-piperazinyl]methyl]-benzamide]
Ki (δ-opioid receptor): 859 nM
Ki (μ-opioid receptor): > 10000 nM

CCN(CC)C(=O)c1ccc(C(=Nc2ccccc2)N2CCN(Cc3ccccc3)CC2)cc1 [Compound 17, N,N-diethyl-4-[(phenylimino)[4-(phenylmethyl)-1-piperazinyl]methyl]-benzamide]
Ki (δ-opioid receptor): 212 nM
Ki (μ-opioid receptor): > 10000 nM

CCN(CC)C(=O)c1ccc(C(=Nc2ccccc2)N2CCN(CCc3cccs3)CC2)cc1 [Compound 22, N,N-diethyl-4-[(phenylimino)[4-[2-(2-thienyl)ethyl]-1-piperazinyl]methyl]-benzamide]
Ki (δ-opioid receptor): 764 nM
Ki (μ-opioid receptor): > 10000 nM

CCN(CC)C(=O)c1ccc(C(=Nc2ccccc2C(F)(F)F)N2CCN(Cc3ccccc3)CC2)cc1 [Compound 23, N,N-diethyl-4-[[4-(phenylmethyl)-1-piperazinyl][[2-(trifluoromethyl)phenyl]imino]methyl]-benzamide]
Ki (δ-opioid receptor): 1.22 nM
Ki (μ-opioid receptor): 1200 nM

CCN(CC)C(=O)c1ccc(C(=Nc2ccccc2C(F)(F)F)N2CCN(CCc3ccccc3)CC2)cc1 [Compound 24, N,N-diethyl-4-[[4-(2-phenylethyl)-1-piperazinyl][[2-(trifluoromethyl)phenyl]imino]methyl]-benzamide]
Ki (δ-opioid receptor): 545 nM
Ki (μ-opioid receptor): 1000 nM

CCN(CC)C(=O)c1ccc(C(=Nc2ccccc2Cl)N2CCN(CCc3ccccc3)CC2)cc1 [Compound 25, 4-[[(2-chlorophenyl)imino][4-(2-phenylethyl)-1-piperazinyl]methyl]-N,N-diethyl-benzamide]
Ki (δ-opioid receptor): > 10000 nM
Ki (μ-opioid receptor): > 10000 nM

CCN(CC)C(=O)c1ccc(C(=Nc2ccccc2C(F)(F)F)N2CCN(CCOC)CC2)cc1 [Compound 26, N,N-diethyl-4-[[4-(2-methoxyethyl)-1-piperazinyl][[2-(trifluoromethyl)phenyl]imino]methyl]-benzamide]
Ki (δ-opioid receptor): 22.9 nM
Ki (μ-opioid receptor): 2960 nM

CCN(CC)C(=O)c1ccc(C(=Nc2ccccc2Cl)N2CCN(CCOC)CC2)cc1 [Compound 27, 4-[[(2-chlorophenyl)imino][4-(2-methoxyethyl)-1-piperazinyl]methyl]-N,N-diethyl-benzamide]
Ki (δ-opioid receptor): 53.5 nM
Ki (μ-opioid receptor): > 10000 nM

CCN(CC)C(=O)c1ccc(C(=Nc2ccc(Cl)cc2)N2CCN(Cc3ccccc3)CC2)cc1 [Compound 28, 4-[[(4-chlorophenyl)imino][4-(phenylmethyl)-1-piperazinyl]methyl]-N,N-diethyl-benzamide]
Ki (δ-opioid receptor): 142 nM
Ki (μ-opioid receptor): > 10000 nM

CCN1CCN(C(=Nc2ccccc2F)c2ccc(C(=O)OC)cc2)CC1 [Compound 33, 4-[(4-ethyl-1-piperazinyl)[(3-fluorophenyl)imino]methyl]-benzoic acid methyl ester]
Ki (δ-opioid receptor; [1]): 230 nM
Ki (μ-opioid receptor; [2]): > 10000 nM

COC(=O)c1ccc(C(=Nc2ccccc2Cl)N2CCN(c3ccccc3)CC2)cc1 [Compound 35, 4-[[(2-chlorophenyl)imino](4-phenyl-1-piperazinyl)methyl]-benzoic acid methyl ester]
Ki (δ-opioid receptor; [1]): 7640 nM
Ki (μ-opioid receptor; [2]): > 10000 nM

COC(=O)c1ccc(C(=Nc2ccccc2)N2CCN(Cc3ccccc3)CC2)cc1 [Compound 37, 4-[(phenylimino)[4-(phenylmethyl)-1-piperazinyl]methyl]-benzoic acid methyl ester]
Ki (δ-opioid receptor; [1]): 1690 nM
Ki (μ-opioid receptor; [2]): > 10000 nM

COC(=O)c1ccc(C(=Nc2ccc(Cl)cc2)N2CCN(Cc3ccccc3)CC2)cc1 [Compound 38, 4-[[(4-chlorophenyl)imino][4-(phenylmethyl)-1-piperazinyl]methyl]-benzoic acid methyl ester]
Ki (δ-opioid receptor; [1]): 246 nM
Ki (μ-opioid receptor; [2]): > 10000 nM

COC(=O)c1ccc(C(=Nc2ccccc2Cl)N2CCN(Cc3ccccc3)CC2)cc1 [Compound 39, 4-[[(2-chlorophenyl)imino][4-(phenylmethyl)-1-piperazinyl]methyl]-benzoic acid methyl ester]
Ki (δ-opioid receptor; [1]): 2010 nM
Ki (μ-opioid receptor; [2]): > 10000 nM

COC(=O)c1ccc(C(=Nc2ccccc2Cl)N2CCN(CCc3ccccc3)CC2)cc1 [Compound 40, 4-[[(2-chlorophenyl)imino][4-(2-phenylethyl)-1-piperazinyl]methyl]-benzoic acid methyl ester]
Ki (δ-opioid receptor; [1]): > 10000 nM
Ki (μ-opioid receptor; [2]): > 10000 nM

COC(=O)c1ccc(C(=Nc2ccccc2C(F)(F)F)N2CCN(CCc3ccccc3)CC2)cc1 [Compound 41, 4-[[4-(2-phenylethyl)-1-piperazinyl][[2-(trifluoromethyl)phenyl]imino]methyl]-benzoic acid methyl ester]
Ki (δ-opioid receptor; [1]): > 10000 nM
Ki (μ-opioid receptor; [2]): > 10000 nM

COC(=O)c1ccc(C(=Nc2ccccc2)N2CCN(CCc3cccs3)CC2)cc1 [Compound 42, 4-[(phenylimino)[4-[2-(2-thienyl)ethyl]-1-piperazinyl]methyl]-benzoic acid methyl ester]
Ki (δ-opioid receptor; [1]): > 10000 nM
Ki (μ-opioid receptor; [2]): > 10000 nM

COC(=O)c1ccc(C(=Nc2ccccc2Cl)N2CCN(CCc3cccs3)CC2)cc1 [Compound 43, 4-[[(2-chlorophenyl)imino][4-[2-(2-thienyl)ethyl]-1-piperazinyl]methyl]-benzoic acid methyl ester]
Ki (δ-opioid receptor; [1]): > 10000 nM
Ki (μ-opioid receptor; [2]): > 10000 nM

COCCN1CCN(C(=Nc2ccccc2C(F)(F)F)c2ccc(C(=O)OC)cc2)CC1 [Compound 44, 4-[[4-(2-methoxyethyl)-1-piperazinyl][[2-(trifluoromethyl)phenyl]imino]methyl]-benzoic acid methyl ester]
Ki (δ-opioid receptor; [1]): 82.6 nM
Ki (μ-opioid receptor; [2]): 9150 nM

COCCN1CCN(C(=Nc2ccccc2Cl)c2ccc(C(=O)OC)cc2)CC1 [Compound 45, 4-[[(2-chlorophenyl)imino][4-(2-methoxyethyl)-1-piperazinyl]methyl]-benzoic acid methyl ester]
Ki (δ-opioid receptor; [1]): 299 nM
Ki (μ-opioid receptor; [2]): > 10000 nM

C=CCN1C[C@H](C)N(/C(=N/c2ccccc2)c2ccc(C(=O)OC)cc2)C[C@H]1C [Compound 51, 4-[(E)-[(2S,5R)-2,5-dimethyl-4-(2-propenyl)piperazinyl](phenylimino)methyl]-benzoic acid methyl ester]
Ki (δ-opioid receptor; [1]): 405 nM
Ki (μ-opioid receptor; [2]): > 10000 nM

C=CCN1CCN(C(=Nc2ccccc2Cl)c2cccc(C(=O)N(CC)CC)c2)CC1 [Compound 52, 3-[[(2-chlorophenyl)imino][4-(2-propenyl)-1-piperazinyl]methyl]-N,N-diethyl-benzamide]
Ki (δ-opioid receptor): 487 nM
Ki (μ-opioid receptor): 600 nM

C=CCN1CCN(C(=Nc2ccccc2)c2cccc(C(=O)N(CC)CC)c2)CC1 [Compound 53, N,N-diethyl-3-[(phenylimino)[4-(2-propenyl)-1-piperazinyl]methyl]-benzamide]
Ki (δ-opioid receptor; [1]): 7030 nM
Ki (μ-opioid receptor; [2]): > 10000 nM

C=CCN1CCN(C(=Nc2ccccc2Cl)c2cccc(C(=O)OC)c2)CC1 [Compound 54, 3-[[(2-chlorophenyl)imino][4-(2-propenyl)-1-piperazinyl]methyl]-benzoic acid methyl ester]
Ki (δ-opioid receptor; [1]): 2150 nM
Ki (μ-opioid receptor; [2]): 1610 nM

CCN(CC)C(=O)c1ccc(C(=Nc2ccccc2)N2CCCN(CCc3ccccc3)CC2)cc1 [Compound 56, N,N-diethyl-4-[[hexahydro-4-(2-phenylethyl)-1H-1,4-diazepin-1-yl](phenylimino)methyl]-benzamide]
Ki (δ-opioid receptor): 396 nM

CCN(CC)C(=O)c1ccc(C(=Nc2ccccc2Cl)N2CCCN(CCc3ccccc3)CC2)cc1 [Compound 57, 4-[[(2-chlorophenyl)imino][hexahydro-4-(2-phenylethyl)-1H-1,4-diazepin-1-yl]methyl]-N,N-diethyl-benzamide]
Ki (δ-opioid receptor): 29.6 nM
Ki (μ-opioid receptor): 618 nM

COC(=O)c1ccc(C(=Nc2ccccc2)N2CCCN(CCc3ccccc3)CC2)cc1 [Compound 58, 4-[[hexahydro-4-(2-phenylethyl)-1H-1,4-diazepin-1-yl](phenylimino)methyl]-benzoic acid methyl ester]
Ki (δ-opioid receptor; [1]): 820 nM
Ki (μ-opioid receptor; [2]): 232 nM

COC(=O)c1ccc(C(=Nc2ccccc2Cl)N2CCCN(CCc3ccccc3)CC2)cc1 [Compound 59, 4-[[(2-chlorophenyl)imino][hexahydro-4-(2-phenylethyl)-1H-1,4-diazepin-1-yl]methyl]-benzoic acid methyl ester]
Ki (δ-opioid receptor; [1]): 101 nM
Ki (μ-opioid receptor; [2]): 197 nM
